Test results taken from paper PMC5421464, “Characterization of the single-subunit oligosaccharyltransferase STT3A from Trypanosoma brucei using synthetic peptides and lipid-linked oligosaccharide analogs” (Glycobiology, 2017).
Marks after values point to notes of the source that are not given here. Ends that are not written are not given here. * marks the point of attachment. 5FAM = O=C1OC2(c3ccc(O)cc3Oc3cc(O)ccc32)c2ccc(C(=O)*)cc21

Key:
Type in all cases: biochemical
TbSTT3A [1] = target: T1, TbSTT3A (Trypanosoma brucei, UniProt Q57W34); experiment: In vitro glycosylation assay, turnover rate of acceptor peptides (Tricine SDS-PAGE fluorescence)
T1 sequence (Q57W34 1-801): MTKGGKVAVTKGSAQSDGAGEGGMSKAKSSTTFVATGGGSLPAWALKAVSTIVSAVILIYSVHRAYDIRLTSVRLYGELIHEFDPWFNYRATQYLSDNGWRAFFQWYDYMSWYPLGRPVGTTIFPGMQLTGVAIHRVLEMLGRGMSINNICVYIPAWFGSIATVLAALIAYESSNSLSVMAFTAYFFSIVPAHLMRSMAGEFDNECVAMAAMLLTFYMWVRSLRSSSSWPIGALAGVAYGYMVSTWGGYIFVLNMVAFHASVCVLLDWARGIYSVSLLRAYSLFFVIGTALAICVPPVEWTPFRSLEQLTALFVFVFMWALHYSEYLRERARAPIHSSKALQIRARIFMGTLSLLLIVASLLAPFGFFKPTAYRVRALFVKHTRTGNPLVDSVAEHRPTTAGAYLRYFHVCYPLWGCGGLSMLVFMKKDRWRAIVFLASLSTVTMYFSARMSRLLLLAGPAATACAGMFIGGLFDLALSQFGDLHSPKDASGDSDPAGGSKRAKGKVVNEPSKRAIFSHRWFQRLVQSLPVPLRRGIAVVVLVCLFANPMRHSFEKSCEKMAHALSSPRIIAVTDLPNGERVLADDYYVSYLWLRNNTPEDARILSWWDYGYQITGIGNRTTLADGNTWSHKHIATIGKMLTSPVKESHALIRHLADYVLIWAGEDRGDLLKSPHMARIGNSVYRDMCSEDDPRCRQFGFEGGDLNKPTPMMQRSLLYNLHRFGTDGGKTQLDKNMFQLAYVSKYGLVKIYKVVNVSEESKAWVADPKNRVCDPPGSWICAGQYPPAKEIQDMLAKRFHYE
Procedure: (§1) Fig. 2. Optimization of the acceptor peptide sequence. (A) Synthetic acceptor peptides are shown in single letter code. The acceptor asparagine (zero position of the sequon) is indicated in red. Glycosylation experiments were performed and the fluorescently labeled substrate (G0) and product (G1) were quantified following Tricine SDS-PAGE analysis. (B) Turnover rates after fitting the time points by linear regression using PRISM. Error bars indicate standard error of the fitting. (C) Kinetic analysis of substrate peptides: glycosylation experiments were performed with 20 nM purified TbSTT3A, 50 µM farnesyl-PP-chitobiose, 10 mM MnCl2, 150 mM NaCl, 20 mM Hepes pH 7.5, 0.035% DDM, 0.007% CHS and different concentrations of peptides varying from 2 to 60 µM. Data points reflect the mean of three separate measurements. Error bars indicate standard deviations. Data were fitted by nonlinear regression according to the Michaelis–Menten formula using PRISM. This figure is available in black and white in print and in color at Glycobiology online.
Reaction mixtures contained 20 nM purified TbSTT3A protein, 50µM farnesyl-PP-GlcNAc or farnesyl-PP-chitobiose, 10 mM MnCl2, 150 mM NaCl, 20 mM Hepes pH 7.5, 0.035% DDM, 0.007% CHS and 20 µM of the peptide. Reactions were incubated at 30°C. Samples were taken at different time points and reactions were stopped by the addition of 4X SDS Laemmli buffer. Samples were diluted 200-fold prior to analysis by Tricine SDS-PAGE consisting of a 16% resolving gel with 6 M urea, a 10% spacer gel and a 4% stacking gel ([Schägger 2006]). Fluorescent bands for peptide and glycopeptide were visualized by using a Typhoon Trio Plus imager (GE Healthcare) with excitation set at 488 nm and using a 526 nm SP emission filter. The amount of formed glycopeptide was determined from band intensities of fluorescence gel scans (ImageJ) ([Gerber et al. 2013]). Turnover rate determination was performed by fitting of the data to linear regression using PRISM software.
Supplementary Figure 2: Glycosylation Assays with farnesyl-PP-GlcNAc. In vitro glycosylation experiments were performed with 20nM purified TbStt3A purified protein, 50µM Farnesyl-PP-GlcNAc or Farnesyl-PP-GlcNac2, 10 mM MnCl2, 150 mM NaCl, 20 mM Hepes pH 7.5, 0.035% DDM, 0.007% CHS and 10 µM of the peptide P1.

TbSTT3A [2] = target: T1, TbSTT3A; experiment: Michaelis-Menten kinetics of the peptides; settings: 20 nM TbSTT3A, 50 µM farnesyl-PP-chitobiose, peptide 2-60 µM, 30°C
Procedure: as §1
For Michaelis–Menten kinetics of the peptides, reaction mixtures containing 20 nM TbSTT3A protein, 50 µM farnesyl-PP-chitobiose, 10 mM MnCl2, 150 mM NaCl, 20 mM Hepes pH 7.5, 0.035% DDM and 0.007% CHS were incubated with varying concentrations (2–60 µM) of peptides P11, P13 and P14. Samples were taken at different time points and the turnover rate of the reactions were determined as before. Data were fitted by nonlinear regression according to the Michaelis–Menten formula using PRISM software.

TbSTT3A [3] = target: T1, TbSTT3A; experiment: Michaelis-Menten kinetics of the LLO analogs; settings: for kcat (LLO analog): 20 nM TbSTT3A, 10 µM acceptor peptide, varying LLO analog concentration
Procedure: Fig. 3. (A) Structure of the LLO analogs synthesized (1a) (S)-Citronellyl-PP-Chitobiose, C10; (1b) farnesyl-PP-chitobiose, C15; (1c) (S)-NerylCitronellyl-PP-chitobiose, C20; (1d) (S)-farnesylCitronellyl-PP-chitobiose, C25. (B) Kinetic analysis of synthetic LLO analogs. Glycosylation experiments were performed with 20 nM purified TbSTT3A, 10 µM […], 10 mM MnCl2, 150 mM NaCl, 20 mM Hepes pH 7.5, 0.035% DDM, 0.007% CHS and different concentrations of synthetic LLO analogs. Data points reflect the mean of 3 separate measurements. Error bars indicate standard deviations. Data were fitted by nonlinear regression according to the Michaelis–Menten formula using PRISM software. This figure is available in black and white in print and in color at Glycobiology online.
For Michaelis–Menten kinetics of the LLO analogs, reaction mixtures containing 20 nM TbSTT3A protein, 10 µM peptide P11, 10 mM MnCl2, 150 mM NaCl, 20 mM Hepes pH 7.5, 0.035% DDM and 0.007% CHS were incubated with different concentrations of LLO analogs (10–900 µM, for 1a; 2–60 µM, for 1b; 1–50 µM, for 1c and 1–20 µM, for 1d). Samples were taken at different time points and turnover rates of the reactions were determined as before. Data were fitted by nonlinear regression according to the Michaelis–Menten formula using PRISM software.

TbSTT3A [4] = target: T1, TbSTT3A; experiment: Inhibition analysis with LLO competitive inhibitors; settings: 20 nM TbSTT3A, 10 µM peptide P11, inhibitor 1-2500 µM preincubated 5 min, 15 µM farnesyl-PP-chitobiose 1b
Procedure: Fig. 5. (A) Structure of the LLO inhibitors synthesized (34b) farnesyl-PP-C-chitobiose, C15; (34d) (S)-farnesylCitronellyl-PP-C-chitobiose, C25. (B) Kinetic analysis of synthetic LLO inhibitors. Glycosylation experiments were performed with 20 nM TbSTT3A protein, 10 µM peptide P11, 10 mM MnCl2, 150 mM NaCl, 20 mM Hepes pH 7.5, 0.035% DDM and 0.007% CHS. Samples were incubated with LLO competitive inhibitors (1–2500 µM) for 5 min before adding 15 µM of farnesyl-PP-chitobiose, 1b. Data points reflect the mean of three separate measurements. Error bars indicate standard deviations. Data were fitted by nonlinear regression using PRISM software. This figure is available in black and white in print and in color at Glycobiology online.
For inhibition analysis, reaction mixtures containing 20 nM TbSTT3A protein, 10 µM peptide P11, 10 mM MnCl2, 150 mM NaCl, 20 mM Hepes pH 7.5, 0.035% DDM and 0.007% CHS were incubated with different concentrations of LLO competitive inhibitors (1–2500 µM) for 5 min at 30°C. Reactions were started with addition of 15 µM of farnesyl-PP-chitobiose, 1b. Samples were taken at different time points and turnover rates of the reactions were determined as before. Data were fitted to nonlinear regression and IC50 was determined using PRISM software.

5CF-GSDANYTY (5FAM-GSDANYTY) [P11, 5-carboxyfluorescein labeled acceptor peptide]
Glycosylation of acceptor peptide (result in words) (TbSTT3A [1]; farnesyl-PP-chitobiose 1b donor): highest turnover rate
kcat (substrate peptide) (TbSTT3A [2]): 37 ± 5^a pep/min

5CF-GSDANYTYTQ (5FAM-GSDANYTYTQ) [P14, 5-carboxyfluorescein labeled acceptor peptide, P11 elongated at the C-terminus]
Increase in glycosylation turnover (TbSTT3A [1]; from the initial DANYTK to GSDANYTYTQ): about 3 fold
kcat (substrate peptide) (TbSTT3A [2]): 28 ± 1 pep/min
Km (TbSTT3A [2]; read-out: KM (substrate peptide)): 28 ± 3 µM

CC(=O)N[C@H]1[C@@H](OP(=O)(O)OP(=O)(O)OCC[C@@H](C)CCC=C(C)C)O[C@H](CO)[C@@H](O[C@@H]2O[C@H](CO)[C@@H](O)[C@H](O)[C@H]2NC(C)=O)[C@@H]1O [1a, P1-2-acetamido-O-(2-acetamido-2-deoxy-β-D-glucopyranosyl)-(1-4)-2-deoxy-α-D-glucopyranosyl P2-(S)-3,7-dimethyloct-6-en-1-yl diphosphate]
kcat (LLO analog) (TbSTT3A [3]): 9.1 ± 0.5 pep/min

CC(=O)N[C@H]1[C@@H](OP(=O)(O)OP(=O)(O)OC/C=C(\C)CC/C=C(\C)CCC=C(C)C)O[C@H](CO)[C@@H](O[C@@H]2O[C@H](CO)[C@@H](O)[C@H](O)[C@H]2NC(C)=O)[C@@H]1O [1b, P1-2-acetamido-O-(2-acetamido-2-deoxy-β-D-glucopyranosyl)-(1-4)-2-deoxy-α-D-glucopyranosyl P2-(2E,6E)-3,7,11-Trimethyldodeca-2,6,10-trien-1-yl diphosphate]
kcat (LLO analog) (TbSTT3A [3]): 12 ± 1 pep/min
Apparent affinity lower compared to 1d (TbSTT3A [3]; from KM values, Table II): 2 fold

CC(=O)NC1C(OC2C(CO)OC(OP(=O)(O)OP(=O)(O)OCCC(C)CCC=C(C)CCC=C(C)CCC=C(C)C)C(NC(C)=O)C2O)OC(CO)C(O)C1O [1c, P1-2-acetamido-O-(2-acetamido-2-deoxy-β-D-glucopyranosyl)-(1-4)-2-deoxy-α-D-glucopyranosyl P2-(3S,6Z,10Z)-3,7,11,15-tetramethylhexadeca-6,10,14-trien-1-yl diphosphate]
kcat (LLO analog) (TbSTT3A [3]): 23 ± 1 pep/min

CC(=O)N[C@H]1[C@@H](OP(=O)(O)OP(=O)(O)OCC[C@@H](C)CC/C=C(/C)CC/C=C(\C)CC/C=C(\C)CCC=C(C)C)O[C@H](CO)[C@@H](O[C@@H]2O[C@H](CO)[C@@H](O)[C@H](O)[C@H]2NC(C)=O)[C@@H]1O [1d, P1-2-acetamido-O-(2-acetamido-2-deoxy-β-D-glucopyranosyl)-(1-4)-2-deoxy-α-D-glucopyranosyl P2-(S,6Z,10E,14E)-3,7,11,15,19-pentamethylicosa-6,10,14,18-tetraen-1-yl diphosphate]
kcat (LLO analog) (TbSTT3A [3]): 16 ± 1 pep/min

CC(=O)N[C@@H]1[C@@H](O)[C@H](O[C@@H]2O[C@H](CO)[C@@H](O)[C@H](O)[C@H]2NC(C)=O)[C@@H](CO)O[C@@H]1CP(=O)(O)OP(=O)(O)OC/C=C(\C)CC/C=C(\C)CCC=C(C)C [34b, (((2S,3R,4R,5S,6R)-3-acetamido-5-(((2S,3R,4R,5S,6R)-3-acetamido-4,5-dihydroxy-6-(hydroxymethyl)tetrahydro-2H-pyran-2-yl)oxy)-4-hydroxy-6-(hydroxymethyl)tetrahydro-2H-pyran-2-yl)methyl)phosphonic ((2E,6E)-3,7,11-trimethyldodeca-2,6,10-trien-1-ylphosphoric) anhydride]
IC50 (TbSTT3A [4]): 167 ± 14 µM

CC(=O)N[C@@H]1[C@@H](O)[C@H](O[C@@H]2O[C@H](CO)[C@@H](O)[C@H](O)[C@H]2NC(C)=O)[C@@H](CO)O[C@@H]1CP(=O)(O)OP(=O)(O)OCC[C@@H](C)CC/C=C(/C)CC/C=C(\C)CC/C=C(\C)CCC=C(C)C [34d, (((2S,3R,4R,5S,6R)-3-acetamido-5-(((2S,3R,4R,5S,6R)-3-acetamido-4,5-dihydroxy-6-(hydroxymethyl)tetrahydro-2H-pyran-2-yl)oxy)-4-hydroxy-6-(hydroxymethyl)tetrahydro-2H-pyran-2-yl)methyl)phosphonic ((S,6Z,10E,14E)-3,7,11,15,19-pentamethylicosa-6,10,14,18-tetraen-1-ylphosphoric) anhydride]
IC50 (TbSTT3A [4]): 26 ± 3 µM
